Measurements as given in PubChem BioAssay AID1963865 (Molecular Pharmacology Branch, DTP, NCI, 2024).

Tested on: KRAS PDC multicell spheroid viability
Test: Anticancer human tumor 825966-067-R-J1-PDC patient-derived colon carcinoma cell line growth inhibition [KRAS2]
Settings: for IC50: curve of first compound; for viability, T/C: stronger effect = lower value
Source text: Multicellular complex tumor spheroid response to RAS pathway inhibitors in combination with a targeted agents in patient-derived cell lines with oncogenic KRAS variants from multiple cancer types
A high-throughput screen of multi-cell type tumor spheroids was designed to identify active combinations of targeted small molecules and KRAS pathway inhibitors. Complex spheroids include a stromal component modeled by human endothelial cells (HUVEC) and fibroblasts modeled by human mesenchymal stem cells (MSCs). The concentration ranges selected for each drug and investigational agent were based upon clinically achievable concentrations if the clinical Cmax of the agent was known.
Compounds. The drugs and investigational agents: BI-3406 (NSC825286), BAY-293 (NSC824723), batoprotafib (TNO155; NSC825523), sotorasib (AMG 510; NSC818433), MRTX1257 (NSC819558), elimusertib (BAY 1895344; NSC800525), molibresib (GSK525762; NSC774829), temuterkib (LY3214996; NSC803410), venetoclax (NSC766270), alisertib (NSC759677), olaparib (NSC753686), talazoparib (NSC767125), erdafitinib (NSC781556), ipatasertib (NSC767898), cabozantinib (NSC761068), nintedanib (NSC756659), abemaciclib (NSC768073), docetaxel (NSC628503), trametinib (NSC758246), and sapanisertib (NSC764658) were obtained from the National Cancer Institute (NCI) Developmental Therapeutics Program Chemical Repository. The FDA-approved anticancer drug set is available from the Developmental Therapeutics Program. […] The stock solutions were prepared in dimethyl sulfoxide (DMSO, Sigma-Aldrich, St. Louis, MO, cat. D2650) at 800-fold the tested concentration and stored at -70 degrees C prior to their use. All drugs and investigational agents were tested over a range starting from a high concentration at or near the clinical Cmax and decreasing in half-log increments. If the clinical Cmax for an agent had not been determined, the highest concentration tested was 10 microM.
Cell Culture. All cells were maintained in an incubator at 37 degrees C and 5% CO2 with 95% humidity. The PDC lines were cultured according to standard operating procedures established by the NCI PDMR (https://pdmr.cancer.gov/sops/default.htm). Briefly, all PDCs were thawed and cultured in Matrigel-coated flasks prepared with a working solution of 1X Ham's F-12 nutrient mix, without supplementation (Invitrogen, Waltham, MA, cat. 11765054), 100 U/mL penicillin-streptomycin (Invitrogen, cat. 15140122), and 2.5% Matrigel (Corning Inc., Corning, NY, cat. 354248) for the first three passages. All PDCs were cultured in complete DMEM/F-12 media containing advanced DMEM/F-12 (Invitrogen, cat. 12634028), 4.9% defined fetal bovine serum, heat inactivated (HyClone Laboratories Inc., Logan, UT, cat. SH30070.03HI), 389 ng/mL hydrocortisone (Sigma-Aldrich, cat. H4001), 9.7 ng/mL human EGF recombinant protein (Invitrogen, cat. PHG0313), 23.4 microg/mL adenine (Sigma-Aldrich, cat. A2786), 97.3 U/mL penicillin-streptomycin (Invitrogen, cat. 15140122), 1.9 mM L-glutamine (Invitrogen, cat. 25030081), and 9.7 microM Y-27632 dihydrochloride (Tocris Bioscience, Bristol, United Kingdom, cat. 1254). The PDCs were cultured in complete DMEM/F12 media without 9.7 microM Y-27632 dihydrochloride for at least two passages prior to the screen. The established cell line HOP-62 was cultured in RPMI 1640 medium, HEPES (Invitrogen, cat. 22400105) with 10% defined fetal bovine serum (HyClone Laboratories Inc., cat. SH30070.03) and 2 mM L-glutamine (Invitrogen, cat. 25030081). The pooled donor HUVEC were cultured in endothelial cell growth medium 2 (PromoCell, Heidelberg, Germany, cat. C-22011) and the hMSC were cultured in mesenchymal stem cell growth medium 2 (PromoCell, cat. C-28009). For all experiments, HUVEC and hMSC were used at passages </=5, while the malignant cell lines were used at passages </=15. […]

[1] = second compound 0.1 µM, first compound 0.01 µM
[2] = second compound 0.1 µM, first compound 0.0316 µM
[3] = second compound 0.316 µM, first compound 0.01 µM
[4] = second compound 0.316 µM, first compound 0.0316 µM
[5] = second compound 1 µM, first compound 0.01 µM
[6] = second compound 1 µM, first compound 0.0316 µM
[7] = second compound 3.16 µM, first compound 0.01 µM
[8] = second compound 3.16 µM, first compound 0.0316 µM
[9] = second compound 10 µM, first compound 0.0316 µM
[10] = second compound 0.1 µM, first compound 0.1 µM
[11] = second compound 0.1 µM, first compound 0.316 µM
[12] = second compound 0.1 µM, first compound 1 µM
[13] = second compound 0.1 µM, first compound 3.16 µM
[14] = second compound 0.316 µM, first compound 0.1 µM
[15] = second compound 0.316 µM, first compound 0.316 µM
[16] = second compound 0.316 µM, first compound 1 µM
[17] = second compound 0.316 µM, first compound 3.16 µM
[18] = second compound 1 µM, first compound 0.1 µM
[19] = second compound 1 µM, first compound 0.316 µM
[20] = second compound 1 µM, first compound 1 µM
[21] = second compound 1 µM, first compound 3.16 µM
[22] = second compound 3.16 µM, first compound 0.1 µM
[23] = second compound 3.16 µM, first compound 0.316 µM
[24] = second compound 3.16 µM, first compound 1 µM
[25] = second compound 3.16 µM, first compound 3.16 µM
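Also: spheroids exposed to compounds for 7 days.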
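For viability, T/C in this document: 100% = DMSO vehicle control viability.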

For `CC(=O)Nc1cccc(-n2c(=O)n(C3CC3)c(=O)c3c(Nc4ccc(I)cc4F)n(C)c(=O)c(C)c32)c1` + COc1cc2nc(C)nc(NC(C)c3cc(N)cc(C(F)(F)F)c3)c2cc1OC1CCOC1, the IC50 (second compound 0.1 µM) was over 31.6 nM, the IC50 (second compound 0.316 µM) was 29.6 nM and the IC50 (second compound 1 µM) was 18.5 nM. It also gave an IC50 (second compound 3.16 µM) of 3.25 nM, an IC50 (second compound 10 µM) of under 0.1 nM and a viability, T/C (second compound 0.1 µM, first compound 0.0001 µM) of 95.3%. It also gave a viability, T/C (second compound 0.1 µM, first compound 0.000316 µM) of 114%, a viability, T/C (second compound 0.1 µM, first compound 0.001 µM) of 144% and a viability, T/C (second compound 0.1 µM, first compound 0.00316 µM) of 128%. It also gave a viability, T/C [1] of 64%, a viability, T/C [2] of 84.8% and a viability, T/C (second compound 0.316 µM, first compound 0.0001 µM) of 95%. The viability, T/C (second compound 0.316 µM, first compound 0.000316 µM) was 126%, the viability, T/C (second compound 0.316 µM, first compound 0.001 µM) was 128% and the viability, T/C (second compound 0.316 µM, first compound 0.00316 µM) was 110%. It also gave a viability, T/C [3] of 94.2%, a viability, T/C [4] of 47.3% and a viability, T/C (second compound 1 µM, first compound 0.0001 µM) of 98.5%. The viability, T/C (second compound 1 µM, first compound 0.000316 µM) was 103%, the viability, T/C (second compound 1 µM, first compound 0.001 µM) was 113% and the viability, T/C (second compound 1 µM, first compound 0.00316 µM) was 114%. For the same molecule, the viability, T/C [5] was 72.3%, the viability, T/C [6] was 30.6% and the viability, T/C (second compound 3.16 µM, first compound 0.0001 µM) was 109%. It also gave a viability, T/C (second compound 3.16 µM, first compound 0.000316 µM) of 109%, a viability, T/C (second compound 3.16 µM, first compound 0.001 µM) of 128% and a viability, T/C (second compound 3.16 µM, first compound 0.00316 µM) of 50.9%. For the same molecule, the viability, T/C [7] was 18.8%, the viability, T/C [8] was 5.41% and the viability, T/C (second compound 10 µM, first compound 0.0001 µM) was 2.53%. For the same molecule, the viability, T/C (second compound 10 µM, first compound 0.000316 µM) was 2.62%, the viability, T/C (second compound 10 µM, first compound 0.001 µM) was 0.97% and the viability, T/C (second compound 10 µM, first compound 0.00316 µM) was 0.39%. The viability, T/C (second compound 10 µM, first compound 0.01 µM) was 0.39% and the viability, T/C [9] was 0.27%.
With `Cn1nccc1Nc1nccc(-c2cc3c(s2)C(C)(C)N(CCN2CCOCC2)C3=O)n1` + COc1cc2nc(C)nc(NC(C)c3cc(N)cc(C(F)(F)F)c3)c2cc1OC1CCOC1 the IC50 (second compound 0.1 µM) was over 10000 nM, the IC50 (second compound 0.316 µM) was over 10000 nM and the IC50 (second compound 1 µM) was over 10000 nM. For the same molecule, the IC50 (second compound 3.16 µM) was 10000 nM, the IC50 (second compound 10 µM) was 95.2 nM and the viability, T/C [2] was 105%. It also gave a viability, T/C [10] of 120%, a viability, T/C [11] of 146% and a viability, T/C [12] of 102%. For the same molecule, the viability, T/C [13] was 83.1%, the viability, T/C (second compound 0.1 µM, first compound 10 µM) was 72.2% and the viability, T/C [4] was 110%. It also gave a viability, T/C [14] of 112%, a viability, T/C [15] of 126% and a viability, T/C [16] of 81%. For the same molecule, the viability, T/C [17] was 83.8%, the viability, T/C (second compound 0.316 µM, first compound 10 µM) was 67.7% and the viability, T/C [6] was 114%. It also gave a viability, T/C [18] of 117%, a viability, T/C [19] of 121% and a viability, T/C [20] of 79.3%. The viability, T/C [21] was 80.9%, the viability, T/C (second compound 1 µM, first compound 10 µM) was 65.7% and the viability, T/C [8] was 103%. For the same molecule, the viability, T/C [22] was 130%, the viability, T/C [23] was 85.7% and the viability, T/C [24] was 49.7%. For the same molecule, the viability, T/C [25] was 62.5%, the viability, T/C (second compound 3.16 µM, first compound 10 µM) was 45.6% and the viability, T/C [9] was 70.3%. The viability, T/C (second compound 10 µM, first compound 0.1 µM) was 49.1%, the viability, T/C (second compound 10 µM, first compound 0.316 µM) was 2.05% and the viability, T/C (second compound 10 µM, first compound 1 µM) was 0.83%. For the same molecule, the viability, T/C (second compound 10 µM, first compound 3.16 µM) was 0.32% and the viability, T/C (second compound 10 µM, first compound 10 µM) was 0.87%.
`CC(=O)OC12COC1CC(O)C1(C)C(=O)C(O)C3=C(C)C(OC(=O)C(O)C(NC(=O)OC(C)(C)C)c4ccccc4)CC(O)(C(OC(=O)c4ccccc4)C21)C3(C)C` (stereo not given) + C=CC(=O)N1CCN(c2nc(OCC3CCCN3C)nc3c2CCN(c2cccc4cccc(C)c24)C3)CC1CC#N showed an IC50 (second compound 0.0316 µM) of under 10 nM, an IC50 (second compound 0.1 µM) of under 10 nM and an IC50 (second compound 0.316 µM) of under 10 nM. For the same molecule, the IC50 (second compound 1 µM) was under 10 nM, the IC50 (second compound 3.16 µM) was under 10 nM and the viability, T/C (second compound 0.0316 µM, first compound 0.01 µM) was 24.8%. The viability, T/C (second compound 0.0316 µM, first compound 0.0316 µM) was 28%, the viability, T/C (second compound 0.0316 µM, first compound 0.1 µM) was 23.1% and the viability, T/C (second compound 0.0316 µM, first compound 0.316 µM) was 23.1%. It also gave a viability, T/C (second compound 0.0316 µM, first compound 1 µM) of 24.5%, a viability, T/C (second compound 0.0316 µM, first compound 3.16 µM) of 40.3% and a viability, T/C [1] of 27%. For the same molecule, the viability, T/C [2] was 29.6%, the viability, T/C [10] was 32.1% and the viability, T/C [11] was 22%. The viability, T/C [12] was 28.6%, the viability, T/C [13] was 35.9% and the viability, T/C [3] was 23%. It also gave a viability, T/C [4] of 21.2%, a viability, T/C [14] of 25.4% and a viability, T/C [15] of 24.5%. The viability, T/C [16] was 26.2%, the viability, T/C [17] was 27.3% and the viability, T/C [5] was 28.6%. The viability, T/C [6] was 25%, the viability, T/C [18] was 30% and the viability, T/C [19] was 20%. For the same molecule, the viability, T/C [20] was 27%, the viability, T/C [21] was 26.1% and the viability, T/C [7] was 31.7%. The viability, T/C [8] was 23.2%, the viability, T/C [22] was 21.2% and the viability, T/C [23] was 23.8%. It also gave a viability, T/C [24] of 17.2% and a viability, T/C [25] of 29.6%.
